Assay: Lactam solubility in water or water + ethyl lactate (48 hours agitation, filtration, HPLC quantification)
Type: physicochemical
Conditions: for Mean Lactam Level in Solution: 48 hours agitation
Experimental: The following example uses, without limitation, 4-(4-chlorophenyl)-5-methylene-pyrrol-2-one and ethyl lactate.
Excess solid lactam (˜3 mg) was placed in a Whatman® Mini Uniprep sample vial, fitted with a 0.45 μm nylon filter. Water or water+ethyl lactate (500 μL) was added the mixture shaken and tapped briefly to initially disperse the solid and the mixture then agitated for 48 hours using a plate shaker fitted with a vial holder (see image below). After 48 hours, the solid was removed from the system by pressing down the plunger with integral filter on the vial (see image below). This removes the solid and provides filtered solution within the inner chamber which is then ready for analysis.
The level of lactam dissolved in solution was quantified using HPLC analysis. Samples were analysed on an Agilent 1200® series HPLC fitted with a Thermo Hypersil® Gold C18 column (15×2.1×3 μm), isocratic elution with 60/40 methanol/water (+0.1% Formic Acid), 0.4 mL/min flow rate, using a DAD detector at 285 nm. 4-(4-chlorophenyl)-5-methylene-pyrrol-2-one has a retention time of ˜2.8 minutes.
The absolute level of lactam in solution is measured and reported as an increase in solubility of lactam relative to water alone.

[1] = 0 % ethyl lactate in water (water alone)

Solubility Increase vs water alone [1]: 1.00
Mean Lactam Level in Solution [1]: 5.7 ppm
Solubility Increase vs water alone (0.5 % ethyl lactate in water): 1.21
Mean Lactam Level in Solution (0.5 % ethyl lactate in water): 6.9 ppm
Solubility Increase vs water alone (1 % ethyl lactate in water): 1.21
Mean Lactam Level in Solution (1 % ethyl lactate in water): 6.9 ppm
Solubility Increase vs water alone (2 % ethyl lactate in water): 1.99
Mean Lactam Level in Solution (2 % ethyl lactate in water): 11.3 ppm
Solubility Increase vs water alone (5 % ethyl lactate in water): 4.63
Mean Lactam Level in Solution (5 % ethyl lactate in water): 26.4 ppm
Solubility Increase vs water alone (10 % ethyl lactate in water): 10.57
Mean Lactam Level in Solution (10 % ethyl lactate in water): 60.2 ppm
SMILES: C=C1NC(=O)C=C1c1ccc(Cl)cc1 [4-(4-chlorophenyl)-5-methylene-pyrrol-2-one]
